In the supplement of paper PMC11451515:

Assays:
Conditions in all cases: 48 h
[1] = tested on: NOMO1; experiment: AUC of viability dose-response curve (% viability x log10 dose units); higher = less sensitive
In short: (§1)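 Leukemia cells adapted to each medium (500 or 1000 cells/well, 1536-well plates) were exposed to library compounds in DMSO for 48 h at 37°C at 11 threefold doses, 47 μM to 0.79 nM. Luminescence by CellTiter-Glo One was normalised per plate to DMSO and cell-free wells, then fitted with a four-parameter log-logistic curve on log10 dose. Curves above full viability were scaled and quality-control failures removed before area under the curve was integrated by trapezoidal rule.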

[2] = tested on: SEM cells; experiment: as above
In short: as §1

[3] = tested on: SEM cells; experiment: cell viability relative to DMSO control; higher = less cytotoxic
In short: (§2)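 Three leukemia lines were tested: NOMO1 and SEM at 500 cells/well and P12-Ichikawa at 1000 cells/well. Each was adapted for at least four passages in each medium and seeded in 5 μl in 1536-well plates, and library compounds in DMSO were pin-dosed from 47 μM to 0.79 nM in 11 threefold steps. After 48 h at 37°C, CellTiter-Glo One luminescence was read. Viability is a percentage relative to DMSO wells on each plate, with cell-free wells as background.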

[4] = tested on: P12-Ichikawa; experiment: AUC of viability dose-response curve (% viability x log10 dose units); higher = less sensitive
In short: as §1

[5] = tested on: NOMO1; experiment: cell viability relative to DMSO control; higher = less cytotoxic
In short: as §2

[6] = tested on: P12-Ichikawa; experiment: as above
In short: as §2

COC(=O)Nc1nc2cc(C(=O)c3ccccc3)ccc2[nH]1
AUC of viability dose-response curve
Conditions | HPLM + 10% dialyzed FBS | RPMI 5 mM glucose + 10% FBS | RPMI 5 mM glucose + 10% dialyzed FBS
[1] | 401 | 389 | 397
[2] | 303 | 286 | 291

cell viability [%], [3]
Conditions | HPLM + 10% dialyzed FBS | RPMI 5 mM glucose + 10% FBS
0.000781 µM | 115 | 120
0.00234 µM | 124 | 125
0.00702 µM | 130 | 125
0.0211 µM | 126 | 122
0.0632 µM | 100 | 96.4
0.19 µM | 24.4 | 18
0.569 µM | 69.6 | 59.3
1.71 µM | 128 | 86.8
5.12 µM | 26.6 | 22.6
15.4 µM | 24.1 | 23.4
46.1 µM | 24.1 | 19.2

Cc1coc2c1C(=O)C(=O)c1c-2ccc2c(C)cccc12
AUC of viability dose-response curve
Conditions | HPLM + 10% dialyzed FBS | RPMI 5 mM glucose + 10% FBS | RPMI 5 mM glucose + 10% dialyzed FBS
[1] | 443 | 451 | 460
[4] | 454 | 476 | 446

cell viability [%]
Conditions | [3] | [5] | [6]
RPMI 5 mM glucose + 10% FBS, 0.000781 µM | 91.4 | 126 | 120
RPMI 5 mM glucose + 10% FBS, 0.00234 µM | 79.7 | 113 | 123
RPMI 5 mM glucose + 10% FBS, 0.00702 µM | 107 | 125 | 107
RPMI 5 mM glucose + 10% FBS, 0.0211 µM | 12.8 | 110 | 112
RPMI 5 mM glucose + 10% FBS, 0.0632 µM | 91.3 | 112 | 128
RPMI 5 mM glucose + 10% FBS, 0.19 µM | 80.1 | 128 | 120
RPMI 5 mM glucose + 10% FBS, 0.569 µM | 90.3 | 118 | 114
RPMI 5 mM glucose + 10% FBS, 1.71 µM | 78 | 114 | 123
RPMI 5 mM glucose + 10% FBS, 5.12 µM | 72.8 | 89.4 | 111
RPMI 5 mM glucose + 10% FBS, 15.4 µM | 54 | 103 | 121
RPMI 5 mM glucose + 10% FBS, 46.1 µM | 48.6 | 91.2 | 115
RPMI 5 mM glucose + 10% dialyzed FBS, 0.000781 µM | 112 | 116 | 125
RPMI 5 mM glucose + 10% dialyzed FBS, 0.00234 µM | 117 | 111 | 116
RPMI 5 mM glucose + 10% dialyzed FBS, 0.00702 µM | 135 | 111 | 124
RPMI 5 mM glucose + 10% dialyzed FBS, 0.0211 µM | 19.3 | 113 | 117
RPMI 5 mM glucose + 10% dialyzed FBS, 0.0632 µM | 112 | 117 | 116
RPMI 5 mM glucose + 10% dialyzed FBS, 0.19 µM | 115 | 108 | 112
RPMI 5 mM glucose + 10% dialyzed FBS, 0.569 µM | 98 | 106 | 117
RPMI 5 mM glucose + 10% dialyzed FBS, 1.71 µM | 102 | 130 | 109
RPMI 5 mM glucose + 10% dialyzed FBS, 5.12 µM | 106 | 97.7 | 109
RPMI 5 mM glucose + 10% dialyzed FBS, 15.4 µM | 86.4 | 105 | 103
RPMI 5 mM glucose + 10% dialyzed FBS, 46.1 µM | 75.3 | 106 | 108

N#Cc1ccc(COC[C@H]2O[C@@H](n3c(NCc4ccc(Cl)c(Cl)c4)nc4c(N)ncnc43)[C@H](O)[C@@H]2O)cc1
AUC of viability dose-response curve
Conditions | [1] | [2] | [4]
HPLM + 10% dialyzed FBS | 420 | 465 | 458
RPMI 5 mM glucose + 10% FBS | 428 | 411 | 414
RPMI 5 mM glucose + 10% dialyzed FBS | 420 | 431 | 415

COCCOc1ccc2c(c1)ncn2-c1ccc2cccc(N3CCC(N)CC3)c2n1
AUC of viability dose-response curve
Conditions | HPLM + 10% dialyzed FBS | RPMI 5 mM glucose + 10% FBS | RPMI 5 mM glucose + 10% dialyzed FBS
[1] | 394 | 418 | 405
[4] | 377 | 405 | 394

cell viability [%], [3]
Conditions | HPLM + 10% dialyzed FBS | RPMI 5 mM glucose + 10% FBS | RPMI 5 mM glucose + 10% dialyzed FBS
0.000781 µM | 83.8 | 99.7 | 112
0.00234 µM | 77.9 | 115 | 101
0.00702 µM | 70.3 | 109 | 72.2
0.0211 µM | 59.8 | 67.6 | 65.2
0.0632 µM | 52.5 | 58.7 | 51.3
0.19 µM | 51.6 | 47.8 | 46.1
0.569 µM | 46.6 | 50.9 | 44.6
1.71 µM | 42.5 | 44.1 | 41.8
5.12 µM | 21.7 | 25.8 | 23.7
15.4 µM | 12.8 | 12.3 | 13.1
46.1 µM | 4.13 | 3.44 | 3.97

C1=C/COCc2cc(ccc2OCCN2CCCC2)Nc2nccc(n2)-c2cccc(c2)OCC/1
AUC of viability dose-response curve
Conditions | HPLM + 10% dialyzed FBS | RPMI 5 mM glucose + 10% FBS | RPMI 5 mM glucose + 10% dialyzed FBS
[2] | 354 | 369 | 350
[4] | 409 | 415 | 406

[5], HPLM + 10% dialyzed FBS
Conditions | cell viability [%]
0.000781 µM | 20.8
0.00234 µM | 84.8
0.00702 µM | 123
0.0211 µM | 133
0.0632 µM | 161
0.19 µM | 130
0.569 µM | 124
1.71 µM | 94.7
5.12 µM | 63.2
15.4 µM | 7.96
46.1 µM | 5.7

OC(=O)C/1=C/C(=O)NC(=O)N1
AUC of viability dose-response curve
Conditions | [1] | [2] | [4]
HPLM + 10% dialyzed FBS | 424 | 466 | 455
RPMI 5 mM glucose + 10% FBS | 450 | 457 | 457
RPMI 5 mM glucose + 10% dialyzed FBS | 437 | 458 | 456

NC\1=N\C(=O)N(\C=C1)[C@@H]2O[C@H](CO)[C@@H](O)[C@@H]2O
AUC of viability dose-response curve
Conditions | HPLM + 10% dialyzed FBS | RPMI 5 mM glucose + 10% FBS | RPMI 5 mM glucose + 10% dialyzed FBS
[1] | 186 | 201 | 154
[4] | 38 | 25.6 | 39.2

cell viability [%]
Conditions | [3] | [5] | [6]
HPLM + 10% dialyzed FBS, 0.000781 µM | 23.7 | 76.3 | 26.1
HPLM + 10% dialyzed FBS, 0.00234 µM | 26.1 | 79.8 | 22.9
HPLM + 10% dialyzed FBS, 0.00702 µM | 17.2 | 47.7 | 9.22
HPLM + 10% dialyzed FBS, 0.0211 µM | 15.7 | 62.9 | 8.83
HPLM + 10% dialyzed FBS, 0.0632 µM | 13.3 | 33.9 | 4.99
HPLM + 10% dialyzed FBS, 0.19 µM | 11 | 30.6 | 6.11
HPLM + 10% dialyzed FBS, 0.569 µM | 10.9 | 31.5 | 6.14
HPLM + 10% dialyzed FBS, 1.71 µM | 8.22 | 25.8 | 4.49
HPLM + 10% dialyzed FBS, 5.12 µM | 7.91 | 20.3 | 3.27
HPLM + 10% dialyzed FBS, 15.4 µM | 7.2 | 20 | 2.43
HPLM + 10% dialyzed FBS, 46.1 µM | 3.82 | 6.26 | 0.778
RPMI 5 mM glucose + 10% FBS, 0.000781 µM | 37.4 | 76 | 14.9
RPMI 5 mM glucose + 10% FBS, 0.00234 µM | 37.7 | 83.3 | 15.4
RPMI 5 mM glucose + 10% FBS, 0.00702 µM | 23.5 | 83.1 | 9.94
RPMI 5 mM glucose + 10% FBS, 0.0211 µM | 21.1 | 74.8 | 5.41
RPMI 5 mM glucose + 10% FBS, 0.0632 µM | 11.4 | 54.1 | 3.93
RPMI 5 mM glucose + 10% FBS, 0.19 µM | 12.1 | 24.4 | 3.94
RPMI 5 mM glucose + 10% FBS, 0.569 µM | 10.4 | 25.1 | 3.63
RPMI 5 mM glucose + 10% FBS, 1.71 µM | 8.65 | 21.3 | 2.08
RPMI 5 mM glucose + 10% FBS, 5.12 µM | 7.25 | 14.6 | 1.73
RPMI 5 mM glucose + 10% FBS, 15.4 µM | 6.17 | 8.18 | 1.04
RPMI 5 mM glucose + 10% FBS, 46.1 µM | 1.99 | 3.59 | 0.402
RPMI 5 mM glucose + 10% dialyzed FBS, 0.000781 µM | 16.3 | 66.8 | 20
RPMI 5 mM glucose + 10% dialyzed FBS, 0.00234 µM | 15.2 | 68.6 | 16.6
RPMI 5 mM glucose + 10% dialyzed FBS, 0.00702 µM | 14.2 | 53.4 | 11.1
RPMI 5 mM glucose + 10% dialyzed FBS, 0.0211 µM | 8.59 | 49.9 | 10.5
RPMI 5 mM glucose + 10% dialyzed FBS, 0.0632 µM | 7.4 | 29.8 | 7.45
RPMI 5 mM glucose + 10% dialyzed FBS, 0.19 µM | 7.91 | 18.3 | 6.15
RPMI 5 mM glucose + 10% dialyzed FBS, 0.569 µM | 6.93 | 25.8 | 7.46
RPMI 5 mM glucose + 10% dialyzed FBS, 1.71 µM | 4.74 | 14.7 | 5.67
RPMI 5 mM glucose + 10% dialyzed FBS, 5.12 µM | 3.6 | 16.6 | 3.34
RPMI 5 mM glucose + 10% dialyzed FBS, 15.4 µM | 3.65 | 12.6 | 3.72
RPMI 5 mM glucose + 10% dialyzed FBS, 46.1 µM | 1.52 | 7.75 | 1.87
